The test system of the experiment is C. elegans Sem-5 (sex muscle five) Src-homology 3 (SH3) domain. Conditions: stated in words.

For the substance Ac-VPPXVPPRRRY [proline], the “apparent binding constant measured by ITC” value is recorded as “only in the millimolar range”.
